Experimental findings from patent US8263664B2, “pH-sensitive polymeric micelles for drug delivery” (priority 2002, dated 2012) are described below.

Data set [1] deals with human breast MCF-7/DOX^R carcinoma xenografts. As to the kind of experiment: Growth inhibition of human breast carcinoma (MCF-7/DOX^R) xenografts. The data set is classed as in vivo. As to conditions: 10 mg/kg DOX equivalent i.v. days 0, 3 and 6. The procedure:
Tumor volume was calculated using a formula, tumor volume=0.52×length×width×height. Dimensions were measured with an electronic digital caliper. Two to three weeks after inoculation (tumor volume 150-200 mm^3) in vivo antitumor studies were performed. Saline (control), free DOX, or DOX-loaded micelles in aqueous saline solution were injected intravenously through a tail vein by 1-3 bolus injections at three day intervals. The injection volume (approximately 0.1 mL/10 g body weight) of micelle preparation was adjusted to give 10 mg DOX/kg body weight. Five to eight mice per study were used. Tumor volume and body weight were monitored with elapsed time. A mean standard error was calculated for each experimental point.
For the preparation of doxorubicin-loaded micelles, doxorubicin.HCl (DOX.HCl, Sigma Chemical Co., St. Louis, Mo.) was desalted by stirring overnight in the presence of two molar equivalents of triethylamine (Sigma Chemical Co.) in DMSO (Sigma Chemical Co.). […] The amount of entrapped DOX was determined by measuring UV absorbance at 481 nm of the drug after dissolving micelles in DMSO. […]
A general note: Xenograft models place foreign cells or tissue in a host animal.

Data set [2] deals with A2780/DOX^R tumor. More on the design: species or system nude mice. As to conditions: mouse, in vivo, iv. The procedure: To directly explore the extent of drug extravasation from the blood vessels and accumulation of DOX in the tumor, the time-dependent fluorescence intensity of DOX in the tumor sight was measured using a non-invasive skin fold window chamber model, which allows real-time measurements. To investigate the in situ delivery of polymeric micelles to solid tumors, a non-invasive visualization method using a “dorsal skin-fold window chamber model” was used. M. R. Dreher et al., Tumor vascular permeability, accumulation, and penetration of macromolecular drug carriers, 98 J. Nat'l Cancer Inst. 335-344 (2006). To establish the window chamber model, S. Shan et al., A novel rodent mammary window of orthotic breast cancer for intravital microscopy, 65 Microvasc. Res. 109-117 (2003), a flap of skin measuring 1 cm in diameter was dissected away from opposing surfaces of the dorsal skin flap of an anesthetized mouse, leaving a facial plane with its associated vasculature. The flaps were held vertically away from the body with a titanium saddle, which was sutured to both sides of the flap. […] DOX was incorporated into the polymeric micellar core, and DOX fluorescence imaging was captured in the skin dorsal window. […] Observation was made using intravital fluorescence microscopy (Olympus BX51WI Microscope, Leeds Precision Instruments, Inc., Minnesota) over time.

Data set [3] has as its system MCF-7/DOX^R cells. As to the kind of experiment: MTT cytotoxicity against DOX-resistant MCF-7/DOX^R cells. As to conditions: 48 hrs incubation, pH 8.0-6.8.
Experimental: DOX-resistant MCF-7 cells (MCF-7/DOX^R) were selected from MCF-7 cells (Korean Cell Line Bank (KCLB)) that were stepwise exposed at 0.001-10 mg/mL of free DOX. Here, cells were maintained in RPMI-1640 (Gibco, Uxbridge, UK) medium with 2 mM L-glutamine, 5% penicillin-streptomycin, and 10% fetal bovine serum in a humidified incubator 37° C. and 5% CO2 atmosphere.
For the cytotoxicity test of free DOX or drug-loaded polymeric micelles against sensitive MCF-7 or MCF-7/DOX^R cells, cells (5×10^4 cells/mL) growing as a monolayer, were seeded at 96-well dish in 200 mL of RPMI 1640 medium before 24 hrs. Free DOX or DOX loaded micelles in RPMI 1640 medium with pH 7.4 or 6.8 were prepared immediately before use as described above, added to medium-removed 96-well dish with different DOX concentration, and incubated for 48 hrs. Chemosensitivity was assessed using the tetrazolium salt MTT (Sigma Chemical Co.). Then, 100 mL of PBS pH 7.4 containing 20 mL of MTT (500 mg/L) solution was added to each well. The plates were incubated for an additional 4 hrs, and then 100 mL of DMSO was added to each well. The absorbance of each well was read on a microplate reader using a test wavelength of 570 nm and a reference wavelength 630 nm.

Regarding `COc1cccc2c1C(=O)c1c(O)c3c(c(O)c1C2=O)C[C@@](O)(C(=O)CO)C[C@@H]3O[C@H]1C[C@H](N)[C@H](O)[C@H](C)O1` [free DOX, doxorubicin], the body weight change entry in data set [1] is listed as “more weight loss”. Besides, in data set [2], the “course of DOX fluorescence intensity in the tumor” value was “declined after 20 min and became dark at 60 min”; the “time at which DOX fluorescence intensity in tumor started to appear” value was at most 7 min. Also, the “cytotoxicity against MCF-7/DOX^R cells” value in data set [3] was “little reduced”.
